Measured values published in patent US9540392B2, “Thienopyrimidines” (BAYER PHARMA AKTIENGESELLSCHAFT, priority 2012, dated 2017).

Target: T1, human full-length MKNK1 (Homo sapiens, UniProt Q9BUB5, T385D)
T1 construct: GST (N); purchased Carna Biosciences 02-145; host or cells: insect cells (baculovirus expression system)
Experiment: MKNK1 kinase high ATP assay (TR-FRET)
Assay type: biochemical
Details: 2 mM ATP, after preincubation with MKNK1; read-out: MKNK1 IC50 (MKNK1 high ATP)
Summary of the method: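 Compound was preincubated 15 min at 22° C. with MKNK1 in 50 mM HEPES pH 7.5, 5 mM MgCl2, 1.0 mM DTT, then the reaction ran 30 min at 22° C. with 2 mM ATP and 0.06 μM biotinylated peptide (final).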

T1 sequence (Q9BUB5 1-424 isoform Q9BUB5-2 T344D): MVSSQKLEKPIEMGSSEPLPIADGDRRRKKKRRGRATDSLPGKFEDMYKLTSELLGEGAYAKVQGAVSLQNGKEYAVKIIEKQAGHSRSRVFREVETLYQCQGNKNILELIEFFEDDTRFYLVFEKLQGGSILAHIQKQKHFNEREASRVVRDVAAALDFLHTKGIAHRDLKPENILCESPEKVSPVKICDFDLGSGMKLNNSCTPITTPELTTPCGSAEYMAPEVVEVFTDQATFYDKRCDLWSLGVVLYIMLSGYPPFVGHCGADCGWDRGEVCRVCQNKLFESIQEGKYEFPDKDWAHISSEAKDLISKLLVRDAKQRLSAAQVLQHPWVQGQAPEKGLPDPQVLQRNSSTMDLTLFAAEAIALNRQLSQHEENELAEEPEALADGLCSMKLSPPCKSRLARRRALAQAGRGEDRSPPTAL

Structure (SMILES) | IC50 [nM]
N#CC1CCCN(C(=O)C2CCc3c(sc4ncnc(Nc5ccc6[nH]ncc6c5)c34)C2)C1 (racemic) [Example 196, (RS)-1-{[4-(1H-indazol-5-yalmino)-5,6,7,8-tetrahydro[1]benzothieno[2,3-d]pyrimidin-7-yl]carbonyl}piperidine-3-carbonitrile] | 7.5
CC(C)Oc1cc2[nH]ncc2cc1Nc1ncnc2sc3c(c12)CCC(C(=O)N1CC(C#N)C1)C3 (racemic) [Example 208, (RS)-1-[(4-{[6-(Propan-2-yloxy)-1H-indazol-5-yl]amino}-5,6,7,8-tetrahydro[1]benzothieno[2,3-d]pyrimidin-7-yl)carbonyl]azetidine-3-carbonitrile] | 0.2
O=C(C1CCc2c(sc3ncnc(Nc4ccc5[nH]ncc5c4)c23)C1)N1CC[C@@H](O)C1 (mixture of isomers) [Example 134, (RS)-(3-hydroxypyrrolidin-1-yl)[4-(1H-indazol-5-ylamino)-5,6,7,8-tetrahydro[1]benzothieno[2,3-d]pyrimidin-7-yl]methanone] | 12.7
COc1cc2[nH]ncc2cc1Nc1ncnc2sc3c(c12)CCC(C(=O)N(C)CC1CC1)C3 (racemic) [Example 182, (RS)—N-(Cyclopropylmethyl)-4-[(6-methoxy-1H-indazol-5-yl)amino]-N-methyl-5,6,7,8-tetrahydro[1]benzothieno[2,3-d]pyrimidine-7-carboxamide] | 0.5
CCOc1cc2[nH]ncc2cc1Nc1ncnc2sc3c(c12)CCC(C(=O)N(C)CC)C3 (racemic) [Example 229, (RS)-4-[(6-Ethoxy-1H-indazol-5-yl)amino]-N-ethyl-N-methyl-5,6,7,8-tetrahydro[1]benzothieno[2,3-d]pyrimidine-7-carboxamide] | 0.7
CCOc1cc2[nH]ncc2cc1Nc1ncnc2sc3c(c12)CCC(C(=O)N(C)CCOC)C3 (racemic) [Example 245, (RS)-4-[(6-Ethoxy-1H-indazol-5-yl)amino]-N-(2-methoxyethyl)-N-methyl-5,6,7,8-tetrahydro[1]benzothieno[2,3-d]pyrimidine-7-carboxamide] | 0.7
O=C(O)C1CCc2c(sc3ncnc(Nc4cc5cn[nH]c5cc4F)c23)C1 (centres unmarked) [Example 55, 4-[(6-Fluoro-1H-indazol-5-yl)amino]-5,6,7,8-tetrahydro[1]benzothieno[2,3-d]pyrimidine-7-carboxylic acid] | 37
Cc1n[nH]c2ccc(Nc3ncnc4sc5c(c34)CCC(C(=O)O)C5)cc12 (racemic) [Example 62, (RS)-4-[(3-Methyl-1H-indazol-5-yl)amino]-5,6,7,8-tetrahydro[1]benzothieno[2,3-d]pyrimidine-7-carboxylic acid] | 1420
Cc1ccccc1NC(=O)C1CCc2c(sc3ncnc(Nc4ccc5[nH]ncc5c4)c23)C1 (centres unmarked) [Example 15, 4-(1H-indazol-5-ylamino)-N-(2-methylphenyl)-5,6,7,8-tetrahydro[1]benzothieno[2,3-d]pyrimidine-7-carboxamide] | 3
COc1cc2[nH]ncc2cc1Nc1ncnc2sc3c(c12)CCC(C(=O)N1[C@H](C)CC[C@H]1C)C3 (mixture of isomers) [Example 178, [(2R,5R)-2,5-Dimethylpyrrolidin-1-yl]{(7RS)-4-[(6-methoxy-1H-indazol-5-yl)amino]-5,6,7,8-tetrahydro[1]benzothieno[2,3-d]pyrimidin-7-yl}methanone] | 0.2
CCOc1cc2[nH]ncc2cc1Nc1ncnc2sc3c(c12)CCC(C(=O)N1CC[C@@H](O)C1)C3 (mixture of isomers) [Example 233, {(7RS)-4-[(6-Ethoxy-1H-indazol-5-yl)amino]-5,6,7,8-tetrahydro[1]benzothieno[2,3-d]pyrimidin-7-yl}[(3R)-3-hydroxypyrrolidin-1-yl]methanone] | 0.5
N#Cc1ccccc1N1CCN(C(=O)C2CCc3c(sc4ncnc(Nc5ccc6[nH]ncc6c5)c34)C2)CC1 (racemic) [Example 115, (RS)-2-(4-{[4-(1H-indazol-5-ylamino)-5,6,7,8-tetrahydro[1]benzothieno[2,3-d]pyrimidin-7-yl]carbonyl}piperazin-1-yl)benzonitrile] | 15.3
COc1ccccc1CNC(=O)C1CCc2c(sc3ncnc(Nc4ccc5[nH]ncc5c4)c23)C1 (centres unmarked) [Example 22, 4-(1H-Indazol-5-ylamino)-N-(2-methoxybenzyl)-5,6,7,8-tetrahydro[1] benzothieno[2,3-d] pyrimidine-7-carboxamide] | 3
CC1CCCN(C(=O)C2CCc3c(sc4ncnc(Nc5ccc6[nH]ncc6c5)c34)C2)C1 (racemic) [Example 104, (RS)-[4-(1H-indazol-5-ylamino)-5,6,7,8-tetrahydro[1]benzothieno[2,3-d]pyrimidin-7-yl](3-methylpiperidin-1-yl)methanone] | 7.4
CCOc1cc2[nH]ncc2cc1Nc1ncnc2sc3c(c12)CCC(C(=O)N1CCC(N(C)C)C1)C3 (racemic) [Example 258, [(3RS)-3-(Dimethylamino)pyrrolidin-1-yl]{(7RS)-4-[(6-ethoxy-1H-indazol-5-yl)amino]-5,6,7,8-tetrahydro[1]benzothieno[2,3-d]pyrimidin-7-yl}methanone] | 0.4
COc1cccc(CNC(=O)C2CCc3c(sc4ncnc(Nc5ccc6[nH]ncc6c5)c34)C2)c1 (centres unmarked) [Example 19, 4-(1H-indazol-5-ylamino)-N-(3-methoxybenzyl)-5,6,7,8-tetrahydro[1] benzothieno [2,3-d]pyrimidine-7-carboxamide] | 2
CCOc1cc2[nH]ncc2cc1Nc1ncnc2sc3c(c12)CCC(C(=O)N1CCOCC1)C3 (racemic) [Example 212, (RS)-{4-[(6-Ethoxy-1H-indazol-5-yl)amino]-5,6,7,8-tetrahydro[1]benzothieno[2,3-d]pyrimidin-7-yl}(morpholin-4-yl)methanone] | 0.3
CN(Cc1ccnn1C)C(=O)C1CCc2c(sc3ncnc(Nc4ccc5[nH]ncc5c4)c23)C1 (racemic) [Example 138, (RS)-4-(1H-indazol-5-ylamino)-N-methyl-N-[(1-methyl-1H-pyrazol-5-yl)methyl]-5,6,7,8-tetrahydro[1]benzothieno[2,3-d]pyrimidine-7-carboxamide] | 12.6
CCN(C)C(=O)C1CCc2c(sc3ncnc(Nc4cc5cn[nH]c5cc4OC(C)C)c23)C1 (racemic) [Example 217, (RS)—N-Ethyl-N-methyl-4-{[6-(propan-2-yloxy)-1H-indazol-5-yl]amino}-5,6,7,8-tetrahydro[1]benzothieno[2,3-d]pyrimidine-7-carboxamide] | 1
O=C(NCCN1CCCC1)C1CCc2c(sc3ncnc(Nc4ccc5[nH]ncc5c4)c23)C1 (racemic) [Example 98, (RS)-4-(1H-indazol-5-ylamino)-N-[2-(pyrrolidin-1-yl)ethyl]-5,6,7,8-tetrahydro[1]benzothieno[2,3-d]pyrimidine-7-carboxamide] | 8.1
CCOc1cc2[nH]ncc2cc1Nc1ncnc2sc3c(c12)CCC(C(=O)N1CCC2(CC2)C1)C3 (racemic) [Example 274, (RS)-5-Azaspiro[2.4]hept-5-yl{4-[(6-ethoxy-1H-indazol-5-yl)amino]-5,6,7,8-tetrahydro[1]benzothieno[2,3-d]pyrimidin-7-yl}methanone] | 1
CC(C)Oc1cc2[nH]ncc2cc1Nc1ncnc2sc3c(c12)CCC(C(=O)N(C)CCO)C3 (racemic) [Example 230, (RS)—N-(2-Hydroxyethyl)-4-[(6-isopropoxy-1H-indazol-5-yl)amino]-N-methyl-5,6,7,8-tetrahydro[1]benzothieno[2,3-d]pyrimidine-7-carboxamide] | 0.2
COCCN(CCO)C(=O)C1CCc2c(sc3ncnc(Nc4cc5cn[nH]c5cc4OC)c23)C1 (racemic) [Example 207, (RS)—N-(2-Hydroxyethyl)-N-(2-methoxyethyl)-4-[(6-methoxy-1H-indazol-5-yl)amino]-5,6,7,8-tetrahydro[1]benzothieno[2,3-d]pyrimidine-7-carboxamide] | 0.5
CC1CCN(C(=O)C2CCc3c(sc4ncnc(Nc5ccc6[nH]ncc6c5)c34)C2)CC1 (racemic) [Example 105, (RS)-[4-(1H-indazol-5-ylamino)-5,6,7,8-tetrahydro[1]benzothieno[2,3-d]pyrimidin-7-yl](4-methylpiperidin-1-yl)methanone] | 16.8
O=C(CN1CCN(C(=O)C2CCc3c(sc4ncnc(Nc5ccc6[nH]ncc6c5)c34)C2)CC1)N1CCCC1 (racemic) [Example 201, (RS)-2-(4-{[4-(1H-indazol-5-ylamino)-5,6,7,8-tetrahydro[1]benzothieno[2,3-d]pyrimidin-7-yl]carbonyl}piperazin-1-yl)-1-(pyrrolidin-1-yl)ethanone] | 18.1
O=C(NCc1cccnc1)C1CCc2c(sc3ncnc(Nc4ccc5[nH]ncc5c4)c23)C1 (racemic) [Example 76, (RS)-4-(1H-Indazol-5-ylamino)-N-(pyridin-3-ylmethyl)-5,6,7,8-tetrahydro[1]benzothieno[2,3-d]pyrimidine-7-carboxamide] | 5.1
COCC1CCCN1C(=O)C1CCc2c(sc3ncnc(Nc4ccc5[nH]ncc5c4)c23)C1 (racemic) [Example 204, (RS)-[4-(1H-indazol-5-ylamino)-5,6,7,8-tetrahydro[1]benzothieno[2,3-d]pyrimidin-7-yl][2-(methoxymethyl)pyrrolidin-1-yl]methanone] | 7.3
O=C(NCc1ccccn1)C1CCc2c(sc3ncnc(Nc4ccc5[nH]ncc5c4)c23)C1 (racemic) [Example 81, (RS)-4-(1H-indazol-5-ylamino)-N-(pyridin-2-ylmethyl)-5,6,7,8-tetrahydro[1]benzothieno[2,3-d]pyrimidine-7-carboxamide] | 2.4
CCOc1cc2[nH]ncc2cc1Nc1ncnc2sc3c(c12)CCC(C(=O)N1CC[C@H](O)C1)C3 (mixture of isomers) [Example 246, {(7RS)-4-[(6-Ethoxy-1H-indazol-5-yl)amino]-5,6,7,8-tetrahydro[1]benzothieno[2,3-d]pyrimidin-7-yl}[(3S)-3-hydroxypyrrolidin-1-yl]methanone] | 0.9
